# Earlier results, collected in US9579404B2, “Lanthanoid complex capsule and particle contrast agents, methods of making and using thereof” (New York University, priority 2011, dated 2017).
# Details: in H2O at 9.4 T (400 MHz), 25° C.; from Siddiqui et al. 2009
smiles,measurement,value
"O=C([O-])CN(CCN(CC(=O)[O-])CC(=O)[O-])CCN(CC(=O)[O-])CC(=O)[O-].[Gd+3] [Gd[DTPA]^2−, gadolinium diethylenetriamine-N,N,N′,N″N″-pentaacetate]",Relaxivity (r1) per Gd,4.6^a s^−1mM^−1
